Test results reported in ChEMBL document CHEMBL1909046, “DrugMatrix in vitro pharmacology data”.

Legend:
[1] = target: T1, Alpha-1A adrenergic receptor (Rattus norvegicus, UniProt P43140); experiment: DRUGMATRIX: Alpha-1A adrenergic receptor radioligand binding (ligand: prazosin); assay type: cell membranes, Wistar, Submaxillary gland, Membrane; conditions: Not Active = under 50% inhibition at 10 µM; for Ki: read-out: Ki
T1 sequence (P43140 whole entry): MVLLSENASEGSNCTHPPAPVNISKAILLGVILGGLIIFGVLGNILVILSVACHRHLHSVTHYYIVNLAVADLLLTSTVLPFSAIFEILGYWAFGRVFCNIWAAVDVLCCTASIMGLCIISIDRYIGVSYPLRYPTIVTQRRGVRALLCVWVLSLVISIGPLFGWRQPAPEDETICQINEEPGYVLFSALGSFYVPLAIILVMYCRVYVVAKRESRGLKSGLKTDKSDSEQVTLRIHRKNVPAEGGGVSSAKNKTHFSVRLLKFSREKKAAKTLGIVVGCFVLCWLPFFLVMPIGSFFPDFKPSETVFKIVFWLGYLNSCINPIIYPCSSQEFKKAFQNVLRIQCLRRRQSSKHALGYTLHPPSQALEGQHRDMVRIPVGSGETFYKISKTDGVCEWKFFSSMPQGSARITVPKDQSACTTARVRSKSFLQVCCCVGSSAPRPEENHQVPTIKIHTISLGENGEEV

[2] = DRUGMATRIX: Sigma2 radioligand binding (ligand: [3H] Ifenprodil); assay type: cell membranes, Rattus norvegicus, Wistar, Brain, Membrane; conditions: Not Active = under 50% inhibition at 10 µM
[3] = target: C-C chemokine receptor type 5 (Homo sapiens, UniProt P51681); assay type: cell membranes, HEK293, Membrane; conditions: hek293; also: in other assays of this panel Not Active means under 50% inhibition at 10 µM
C-C chemokine receptor type 5, sequence (P51681 whole entry): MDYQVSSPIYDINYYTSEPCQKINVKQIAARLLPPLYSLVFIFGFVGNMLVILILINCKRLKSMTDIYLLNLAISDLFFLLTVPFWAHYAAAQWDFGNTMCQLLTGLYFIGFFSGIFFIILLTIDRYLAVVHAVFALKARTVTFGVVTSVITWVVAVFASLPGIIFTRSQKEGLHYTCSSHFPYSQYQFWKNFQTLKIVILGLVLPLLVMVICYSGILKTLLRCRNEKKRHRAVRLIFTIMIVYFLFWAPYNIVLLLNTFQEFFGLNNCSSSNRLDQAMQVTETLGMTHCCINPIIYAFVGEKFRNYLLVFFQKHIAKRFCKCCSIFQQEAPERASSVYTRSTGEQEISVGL

D(4) dopamine receptor = target: T2, D(4) dopamine receptor (Homo sapiens, UniProt P21917); experiment: DRUGMATRIX: Dopamine D4.2 radioligand binding (ligand: [3H] Spiperone); assay type: cell membranes, Membrane; conditions: cho-k1; Not Active = under 50% inhibition at 10 µM
T2 sequence (P21917 whole entry): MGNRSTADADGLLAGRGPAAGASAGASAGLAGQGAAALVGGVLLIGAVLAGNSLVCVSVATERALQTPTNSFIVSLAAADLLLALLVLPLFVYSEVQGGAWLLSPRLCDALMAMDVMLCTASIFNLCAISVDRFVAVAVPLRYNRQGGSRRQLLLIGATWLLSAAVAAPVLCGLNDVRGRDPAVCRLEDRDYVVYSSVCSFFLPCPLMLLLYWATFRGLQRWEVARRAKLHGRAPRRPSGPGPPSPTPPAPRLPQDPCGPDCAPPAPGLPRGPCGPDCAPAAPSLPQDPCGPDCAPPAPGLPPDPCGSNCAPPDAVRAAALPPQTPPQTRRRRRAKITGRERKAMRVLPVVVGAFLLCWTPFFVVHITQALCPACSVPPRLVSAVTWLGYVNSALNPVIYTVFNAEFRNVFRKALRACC

Endothelin-1 receptor = target: T3, Endothelin-1 receptor (Homo sapiens, UniProt P25101); assay type: cell membranes, Membrane; conditions: cho-k1; also: in other assays of this panel Not Active means under 50% inhibition at 10 µM
T3 sequence (P25101 whole entry): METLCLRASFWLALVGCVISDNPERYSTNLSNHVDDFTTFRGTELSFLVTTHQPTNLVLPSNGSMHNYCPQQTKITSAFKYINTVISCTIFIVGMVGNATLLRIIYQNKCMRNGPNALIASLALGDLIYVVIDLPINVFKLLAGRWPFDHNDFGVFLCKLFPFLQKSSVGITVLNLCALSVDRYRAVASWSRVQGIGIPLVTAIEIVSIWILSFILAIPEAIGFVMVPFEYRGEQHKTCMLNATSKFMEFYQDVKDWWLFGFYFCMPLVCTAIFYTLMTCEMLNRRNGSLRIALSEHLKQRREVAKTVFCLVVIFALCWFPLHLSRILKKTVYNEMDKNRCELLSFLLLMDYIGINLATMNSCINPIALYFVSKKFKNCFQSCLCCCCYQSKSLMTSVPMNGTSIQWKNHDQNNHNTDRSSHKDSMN

[4] = DRUGMATRIX: Glutamate, NMDA, Agonism radioligand binding (ligand: [3H] CGP-39653); assay type: cell membranes, Rattus norvegicus, Wistar, Cerebral cortex, Membrane; conditions: Not Active = under 50% inhibition at 10 µM
Cathepsin G = target: T4, Cathepsin G (Homo sapiens, UniProt P08311); assay type: tissue-based; conditions: neutrophil;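 also: inhibition of Cathepsin G enzyme activity, tested on an AMC-conjugated peptide substrate; in other assays of this panel Not Active means under 50% inhibition at 10 µM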
T4 sequence (P08311 whole entry): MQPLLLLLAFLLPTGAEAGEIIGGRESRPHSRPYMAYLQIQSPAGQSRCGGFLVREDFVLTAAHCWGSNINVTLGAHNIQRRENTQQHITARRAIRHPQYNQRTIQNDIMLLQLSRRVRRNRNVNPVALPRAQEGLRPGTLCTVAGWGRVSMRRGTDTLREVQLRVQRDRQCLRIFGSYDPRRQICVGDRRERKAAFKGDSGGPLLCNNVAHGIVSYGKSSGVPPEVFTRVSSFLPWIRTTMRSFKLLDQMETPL

[5] = target: Mitogen-activated protein kinase 14 (Homo sapiens, UniProt Q16539); set-up: species or system Escherichia coli;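 also: inhibition of p38alpha enzyme activity in a biochemical kinase assay, with myelin basic protein serving as substrate; in other assays of this panel Not Active means under 50% inhibition at 10 µM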
Mitogen-activated protein kinase 14, sequence (Q16539 whole entry): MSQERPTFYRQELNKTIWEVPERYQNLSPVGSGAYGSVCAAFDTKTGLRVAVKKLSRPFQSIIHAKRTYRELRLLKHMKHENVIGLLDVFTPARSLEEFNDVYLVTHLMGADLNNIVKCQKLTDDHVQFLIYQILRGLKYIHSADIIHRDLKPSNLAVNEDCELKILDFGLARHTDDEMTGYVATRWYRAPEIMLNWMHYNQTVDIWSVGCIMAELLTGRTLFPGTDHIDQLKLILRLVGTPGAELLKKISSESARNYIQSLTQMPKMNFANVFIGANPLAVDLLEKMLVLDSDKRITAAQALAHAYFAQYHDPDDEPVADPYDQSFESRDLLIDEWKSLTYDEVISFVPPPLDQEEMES

SMILES	IC50 [1]	IC50 [2]	Ki [2]	IC50 [3]	IC50 (D(4) dopamine receptor)	IC50 (Endothelin-1 receptor)	IC50 [4]	Ki [4]	IC50 (Cathepsin G)	IC50 [5]	IC50 ([1]; read-out: IC50) [nM]	Ki [1] [nM]	IC50 ([5]; read-out: IC50) [nM]	IC50 ([2]; read-out: IC50) [nM]	Ki ([2]; read-out: Ki) [nM]
CC1=C(CC(=O)O)c2cc(F)ccc2/C1=C\c1ccc([S+](C)[O-])cc1 (stereo unspecified)	Not Active	Not Active	Not Active	Not Active	Not Active	Not Active	Not Active	Not Active	Not Active	Not Active	–	–	–	–	–
N[C@H](CSC(=S)NCc1ccccc1)C(=O)O	Not Active	Not Active	Not Active	Not Active	Not Active	Not Active	Not Active	Not Active	Not Active	Not Active	–	–	–	–	–
CC(=O)N[C@@H]1[C@H](Oc2c3cc4cc2Oc2ccc(cc2Cl)[C@@H](O[C@@H]2O[C@@H](CO)[C@@H](O)[C@H](O)[C@@H]2NC(C)=O)[C@@H]2NC(=O)[C@H](NC(=O)[C@@H]4NC(=O)[C@H]4NC(=O)[C@@H](Cc5ccc(c(Cl)c5)O3)NC(=O)[C@H](N)c3ccc(O)c(c3)Oc3cc(O)cc4c3)c3ccc(O)c(c3)-c3c(O[C@H]4O[C@H](CO)[C@@H](O)[C@@H](O)[C@@H]4O)cc(O)cc3[C@@H](C(=O)O)NC2=O)O[C@@H](CO)[C@@H](O)[C@@H]1O	Not Active	Not Active	Not Active	Not Active	Not Active	Not Active	Not Active	Not Active	Not Active	Not Active	–	–	–	–	–
Clc1ccc2c(c1)C(N1CCNCC1)=Nc1ccccc1O2 [AMOXAPINE]	–	–	–	Not Active	Not Active	Not Active	–	–	Not Active	Not Active	357	144	–	–	–
COc1cc2c(c(OC)c1OC)-c1ccc(OC)c(=O)cc1[C@@H](NC(C)=O)CC2 [COLCHICINE]	Not Active	–	–	Not Active	Not Active	Not Active	–	–	Not Active	Not Active	–	–	–	–	–
CN1CCC(=C2c3ccccc3C=Cc3ccccc32)CC1 [CYPROHEPTADINE]	–	–	–	Not Active	Not Active	Not Active	–	–	Not Active	Not Active	241	98	–	–	–
CC/C(=C(/CC)c1ccc(O)cc1)c1ccc(O)cc1 [DIETHYLSTILBESTROL]	–	–	–	Not Active	Not Active	Not Active	–	–	Not Active	–	19500	7890	32900	–	–
CC(=O)N1CCN(c2ccc(OCC3COC(Cn4ccnc4)(c4ccc(Cl)cc4Cl)O3)cc2)CC1 (stereo unspecified) [KETOCONAZOLE]	–	–	–	Not Active	Not Active	Not Active	Not Active	Not Active	Not Active	Not Active	35700	14500	–	15900	9790
C=CCN1CC[C@]23c4c5ccc(O)c4O[C@H]2C(=O)CC[C@@]3(O)[C@H]1C5 [NALOXONE]	Not Active	–	–	Not Active	Not Active	Not Active	–	–	Not Active	Not Active	–	–	–	–	–
COCCOC(=O)C1=C(C)NC(C)=C(C(=O)OC(C)C)C1c1cccc([N+](=O)[O-])c1 (stereo unspecified) [NIMODIPINE]	Not Active	Not Active	Not Active	Not Active	Not Active	Not Active	Not Active	Not Active	Not Active	Not Active	–	–	–	–	–
CC(C)NCC(O)COc1cccc2ccccc12 (stereo unspecified) [PROPRANOLOL]	Not Active	–	–	Not Active	Not Active	Not Active	–	–	Not Active	Not Active	–	–	–	–	–
COCCCOc1ccnc(C[S+]([O-])c2nc3ccccc3[nH]2)c1C (stereo unspecified) [RABEPRAZOLE]	Not Active	Not Active	Not Active	Not Active	Not Active	Not Active	Not Active	Not Active	Not Active	Not Active	–	–	–	–	–
O=C(c1ccc(OCCN2CCCCC2)cc1)c1c(-c2ccc(O)cc2)sc2cc(O)ccc12 [RALOXIFENE]	–	–	–	Not Active	Not Active	Not Active	Not Active	Not Active	Not Active	Not Active	2200	892	–	385	237
CNC(=C[N+](=O)[O-])NCCSCc1ccc(CN(C)C)o1 [RANITIDINE]	Not Active	Not Active	Not Active	Not Active	Not Active	Not Active	Not Active	Not Active	Not Active	Not Active	–	–	–	–	–
CO[C@H]1/C=C/O[C@@]2(C)Oc3c(C)c(O)c4c(c3C2=O)C2=NC3(CCN(CC(C)C)CC3)NC2=C(NC(=O)/C(C)=C\C=C\[C@H](C)[C@H](O)[C@@H](C)[C@@H](O)[C@@H](C)[C@H](OC(C)=O)[C@@H]1C)C4=O [RIFABUTIN]	Not Active	Not Active	Not Active	Not Active	Not Active	Not Active	Not Active	Not Active	Not Active	Not Active	–	–	–	–	–
CC(C)c1nc(CN(C)C(=O)N[C@H](C(=O)N[C@@H](Cc2ccccc2)C[C@H](O)[C@H](Cc2ccccc2)NC(=O)OCc2cncs2)C(C)C)cs1 [RITONAVIR]	Not Active	Not Active	Not Active	Not Active	Not Active	Not Active	Not Active	Not Active	Not Active	Not Active	–	–	–	–	–
CC(C)CC(N(C)C)C1(c2ccc(Cl)cc2)CCC1 (stereo unspecified) [SIBUTRAMINE]	Not Active	Not Active	Not Active	Not Active	Not Active	Not Active	Not Active	Not Active	Not Active	Not Active	–	–	–	–	–
[H]/N=C(/N)N[C@H]1[C@H](O)[C@@H](O)[C@H](O[C@@H]2O[C@@H](C)[C@](O)(C=O)[C@H]2O[C@@H]2O[C@@H](CO)[C@H](O)[C@@H](O)[C@@H]2NC)[C@@H](N/C(N)=N\[H])[C@@H]1O [STREPTOMYCIN]	Not Active	Not Active	Not Active	Not Active	Not Active	Not Active	Not Active	Not Active	Not Active	Not Active	–	–	–	–	–
COc1cc(NS(=O)(=O)c2ccc(N)cc2)nc(OC)n1 [SULFADIMETHOXINE]	Not Active	Not Active	Not Active	Not Active	Not Active	Not Active	Not Active	Not Active	Not Active	Not Active	–	–	–	–	–
Cc1cc(C)nc(NS(=O)(=O)c2ccc(N)cc2)n1 [SULFAMETHAZINE]	Not Active	Not Active	Not Active	Not Active	Not Active	Not Active	Not Active	Not Active	Not Active	Not Active	–	–	–	–	–
